Measured values published in ChEMBL document CHEMBL3046339, “Insecticidal activity of Maytenus species (Celastraceae) nortriterpene quinone methides against codling moth, Cydia pomonella (L.) (Lepidoptera: tortricidae)” (2000).
Converted amounts (≈) assume the structure as drawn.

Columns and labels:
Type in all cases: functional
Cydia pomonella [1] = experiment: Antifeedant activity against Cydia pomonella (codling moth) at 20 mg/kg diet topically measured after 5 days of continuous exposure (reference value: 6.7 +/- 6.7%)
Cydia pomonella [2] = experiment: Insecticidal activity against Cydia pomonella (codling moth) assessed as mortality treated diet topically measured after 10 days of continuous exposure; conditions: topical, 240 h
Cydia pomonella [3] = experiment: Antifeedant activity against Cydia pomonella (codling moth) at 18 mg/kg diet topically measured after 10 days of continuous exposure (reference value: 6.7 +/- 6.7%)
Cydia pomonella [4] = experiment: Insecticidal activity against Cydia pomonella (codling moth) assessed as mortality at 8 mg/kg diet topically measured after 5 days of continuous exposure (reference value: 0%); conditions: topical, 120 h
Cydia pomonella [5] = experiment: Insecticidal activity against Cydia pomonella (codling moth) at 20 mg/kg assessed as growth regulation measured as number of head capsules of larvae after 10 days of continuous exposure Rvb = (1.5 +/- 0.2%)
Cydia pomonella [6] = experiment: Insecticidal activity against Cydia pomonella (codling moth) assessed as mortality at 1 mg/kg diet topically measured after 10 days of continuous exposure (reference value: 3.3 +/- 3.3%); conditions: topical, 240 h
Cydia pomonella [7] = experiment: Insecticidal activity against Cydia pomonella (codling moth) assessed as mortality at 12 mg/kg diet topically measured after 10 days of continuous exposure (reference value: 3.3 +/- 3.3%); conditions: topical, 240 h
Cydia pomonella [8] = experiment: Insecticidal activity against Cydia pomonella (codling moth) assessed as mortality at 16 mg/kg diet topically measured after 5 days of continuous exposure (reference value: 0%); conditions: topical, 120 h
Cydia pomonella [9] = experiment: Antifeedant activity against Cydia pomonella (codling moth) at 12 mg/kg diet topically measured after 5 days of continuous exposure (reference value: 6.7 +/- 6.7%)
Cydia pomonella [10] = experiment: Insecticidal activity against Cydia pomonella (codling moth) assessed as mortality at 1 mg/kg diet topically measured after 5 days of continuous exposure (reference value: 0%); conditions: topical, 120 h
Cydia pomonella [11] = experiment: Insecticidal activity against Cydia pomonella (codling moth) assessed as mortality at 18 mg/kg diet topically measured after 10 days of continuous exposure (reference value: 3.3 +/- 3.3%); conditions: topical, 240 h
Cydia pomonella [12] = experiment: Antifeedant activity against Cydia pomonella (codling moth) at 8 mg/kg diet topically measured after 5 days of continuous exposure (reference value: 6.7 +/- 6.7%)
Cydia pomonella [13] = experiment: Insecticidal activity against Cydia pomonella (codling moth) assessed as mortality at 4 mg/kg diet topically measured after 5 days of continuous exposure (reference value: 0%); conditions: topical, 120 h
Cydia pomonella [14] = experiment: Insecticidal activity against Cydia pomonella (codling moth) assessed as mortality diet topically measured after 5 days of continuous exposure; conditions: topical, 120 h
Cydia pomonella [15] = experiment: Insecticidal activity against Cydia pomonella (codling moth) assessed as mortality at 12 mg/kg diet topically measured after 5 days of continuous exposure (reference value: 0%); conditions: topical, 120 h
Cydia pomonella [16] = experiment: Antifeedant activity against Cydia pomonella (codling moth) at 4 mg/kg diet topically measured after 10 days of continuous exposure (reference value: 6.7 +/- 6.7%)
Cydia pomonella [17] = experiment: Insecticidal activity against Cydia pomonella (codling moth) at 8 mg/kg assessed as growth regulation measured as number of head capsules of larvae after 5 days of continuous exposure (reference value: 0.2 +/- 0.2%)
Cydia pomonella [18] = experiment: Insecticidal activity against Cydia pomonella (codling moth) assessed as mortality at 6 mg/kg diet topically measured after 10 days of continuous exposure (reference value: 3.3 +/- 3.3%); conditions: topical, 240 h
Cydia pomonella [19] = experiment: Insecticidal activity against Cydia pomonella (codling moth) assessed as mortality at 18 mg/kg diet topically measured after 5 days of continuous exposure (reference value: 0%); conditions: topical, 120 h
Cydia pomonella [20] = experiment: Antifeedant activity against Cydia pomonella (codling moth) at 6 mg/kg diet topically measured after 10 days of continuous exposure (reference value: 6.7 +/- 6.7%)
Cydia pomonella [21] = experiment: Insecticidal activity against Cydia pomonella (codling moth) at 2 mg/kg assessed as growth regulation measured as number of head capsules of larvae after 10 days of continuous exposure Rvb = (1.5 +/- 0.2%)
Cydia pomonella [22] = experiment: Antifeedant activity against Cydia pomonella (codling moth) at 12 mg/kg diet topically measured after 10 days of continuous exposure (reference value: 6.7 +/- 6.7%)

`CC1=C(O)C(=O)C=C2C1=CC=C1[C@@]2(C)CC[C@@]2(C)[C@@H]3C[C@](C)(O)C(=O)C[C@]3(C)CC[C@]12C` [20ALPHA-HYDROXYTINGENONE] showed an Activity (Cydia pomonella [1]) of 100%, an LC50 (Cydia pomonella [2]) of 8.5 mg/mL (≈ 19.5 mM) and an Activity (Cydia pomonella [3]) of 100%. It also gave a mortality at 8 mg/kg (Cydia pomonella [4]) of 3.3%, an Activity (Cydia pomonella [5]) of 0 and a mortality at 1 mg/kg (Cydia pomonella [6]) of 3.3%. The mortality at 12 mg/kg (Cydia pomonella [7]) was 60%, the mortality at 16 mg/kg (Cydia pomonella [8]) was 60% and the Activity (Cydia pomonella [9]) was 96.7%. For the same molecule, the mortality at 1 mg/kg (Cydia pomonella [10]) was 3.3%, the mortality at 18 mg/kg (Cydia pomonella [11]) was 93.3% and the Activity (Cydia pomonella [12]) was 100%. For the same molecule, the mortality at 4 mg/kg (Cydia pomonella [13]) was 6.7%, the LC50 (Cydia pomonella [14]) was 13 mg/mL (≈ 29.8 mM) and the mortality at 12 mg/kg (Cydia pomonella [15]) was 53.3%. The Activity (Cydia pomonella [16]) was 33.3%, the Activity (Cydia pomonella [17]) was 0 and the mortality at 6 mg/kg (Cydia pomonella [18]) was 23.3%. For the same molecule, the mortality at 18 mg/kg (Cydia pomonella [19]) was 86.7%, the Activity (Cydia pomonella [20]) was 53.3% and the Activity (Cydia pomonella [21]) was 1.4. For the same molecule, the Activity (Cydia pomonella [22]) was 90%.
